Values quoted from earlier work, collected in patent publication US9541834B2, “Ionic thermal acid generators for low temperature applications” (Rohm and Haas Electronic Materials LLC, priority 2012, dated 2017).

Conditions: pKa of conjugate acid (BH)+ of the base of the TAG, aqueous solution, about room temperature

Compound | pKa (base)
3-Fluoropyridinium perfluorobutanesulfonate [3-Fluoropyridinium PFBuS] | 2.8
N.O=S(=O)(O)C(F)(F)C(F)(F)C(F)(F)C(F)(F)F [Ammonium PFBuS, Ammonium perfluorobutanesulfonate] | 9.25
Pyridazinium perfluorobutanesulfonate [Pyridazinium PFBuS] | 3.1
